Experiment [1] deals with BTK Activity in RAMOS B Cells. In words: Assay to determine BTK activity in RAMOS B cells (anti-IgM, FLIPR Calcium 6). The format is cell-based. To be noted: EC80 anti-IgM, FLIPR calcium read. As for the experimental part:
On the day before assay, Ramos B cells were plated in plating medium (RPMI1640 medium containing 1% FBS and 1× pencillin-streptomycin). On the day of the assay, 2× dye solution was prepared following the manual of the FLIRP Calcium 6 Assay Kit: Dilute the dye with assay buffer (20 mM HEPES in 1×HBSS, pH7.4); Add probenecid to the final concentration of 5 mM; vortex vigorously for 1-2 minutes. Cells were collected by centrifuging, and the pellet was resuspended in plating medium. After counting, cells were resuspended at a density of 3×10^6/ml in plating medium. Equal volume of 2× dye solution was added to the cell suspension. Cells were then plated at 20 μl/well into a 384-well poly-D-lysine coated plate. Plate was centrifuged at 1000 rpm for 3 minutes and then incubated at 37° C. for 2 hours followed by an additional 15-minute incubation at 25° C. Compounds were prepared at 3× concentration in dilution buffer (20 mM HEPES and 0.1% BSA in 1×HBSS, pH 7.4). Serially diluted compound was transferred from source plate to a 384-well compound plate by using an Echo 550 (Labcyte). 20 μl/well compound dilution buffer was added to the compound plate and mixed on plate shaker for 2 mins. 4×EC80 of Anti-IgM (Jackson ImmunoResearch) was prepared in dilution buffer and 20 μl/well was added to a new 384-well compound plate. After 60 mins of incubation at 25° C. in the dark; cell plate, compound plate containing 4×EC80 of anti-IgM and FLIPR tips were placed into FLIPR (Molecular Devices). 10 ul/well of 4×EC80 anti-IgM was transferred to the cell plate by FLIPR. Plates were read for 160 sec with 1 sec interval.
With respect to Ramos activity, Table 9 lists activity as follows: • “A” denotes an IC50 of less than 10 nM; • “B” denotes an IC50 of from 10 nM to less than 100 nM; and • “C” denotes and IC50 of 100 nM or more.

Experiment [2] concerns the target BTK (Homo sapiens, UniProt Q06187). In words: Assay to determine activity against BTK (EZ reader, FLPeptide). The class given is biochemical. Also on record: purchased Carna. To be noted: ATP (1 mM), BTK (2 nM), room temperature for 90 minutes. The procedure: Solutions of compounds (test or control) in DMSO were prepared at the desired concentrations, and serially diluted to 11 concentrations by 3-fold dilution in 384pp-plate using TECAN EVO200. 20 nL of stock were transferred to 384 plate using Echo550. DMSO was used as vehicle control.
Two separate solutions were prepared—an ATP solution containing MgCl2 (10 mM), Brij-35 (0.01%), DTT (2 mM), BSA (0.05%), EGTA (1 mM), HEPE (pH7.5) (50 mM), FLPeptide (6 uM) and ATP (4 mM); and a BTK solution containing MgCl2 (10 mM), Brij-35 (0.01%), DTT (2 mM), BSA (0.05%), EGTA (1 mM), HEPE (pH7.5) (50 mM) and BTK (2.67 nM). […] (Note the final volume of each well was 20 uL containing MgCl2 (10 mM), Brij-35 (0.01%), DTT (2 mM), BSA (0.05%), EGTA (1 mM), HEPE (pH7.5) (50 mM), FLPeptide (1.5 uM), ATP (1 mM) and BTK (2 nM).
The plates were incubated at room temperature for 90 minutes and then stopping buffer added (75 uL, containing 0.5 M EDTA) to terminate the reaction. Samples from each well were analyzed using EZ reader. The % remaining activity was calculated using read conversion ratio (CR) according to the equation: […]
XLFit (equation 201) was used to calculate IC50s by floating both bottom and top.
With respect to BTK activity, Table 4 lists activity as follows: • “A” denotes an IC50 of less than 10 nM, • “B” denotes an IC50 of from 10 nM to less than 100 nM; and • “C” denotes and IC50 of 100 nM or more.

For orientation: IC50 means the concentration needed to halve the response being measured.

Some results are limits rather than exact numbers.

BTK, sequence (Q06187 whole entry): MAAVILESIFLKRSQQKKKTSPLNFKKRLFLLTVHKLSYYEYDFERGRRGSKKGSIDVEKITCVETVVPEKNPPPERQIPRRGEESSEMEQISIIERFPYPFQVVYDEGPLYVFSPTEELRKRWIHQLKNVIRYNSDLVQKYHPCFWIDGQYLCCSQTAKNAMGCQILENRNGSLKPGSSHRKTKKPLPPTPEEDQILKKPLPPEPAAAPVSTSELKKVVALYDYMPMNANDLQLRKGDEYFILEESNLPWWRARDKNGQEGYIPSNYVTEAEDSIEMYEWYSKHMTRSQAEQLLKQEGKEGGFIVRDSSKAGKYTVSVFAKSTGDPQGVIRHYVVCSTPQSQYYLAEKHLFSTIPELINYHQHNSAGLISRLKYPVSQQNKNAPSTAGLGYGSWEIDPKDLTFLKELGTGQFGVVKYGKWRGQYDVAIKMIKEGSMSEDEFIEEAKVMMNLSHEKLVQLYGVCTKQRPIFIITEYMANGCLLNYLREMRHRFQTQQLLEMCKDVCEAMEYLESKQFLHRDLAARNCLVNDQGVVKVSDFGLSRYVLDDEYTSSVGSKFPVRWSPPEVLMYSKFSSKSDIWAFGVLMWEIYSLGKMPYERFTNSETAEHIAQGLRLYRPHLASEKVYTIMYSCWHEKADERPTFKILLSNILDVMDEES

As for `C=CC(=O)N1CCC[C@H](c2c(F)cc(C(N)=O)c3[nH]c(C)c(C(F)F)c23)C1` [Compound 11, (R)-4-(1-acryloylpiperidin-3-yl)-3-(difluoromethyl)-5-fluoro-2-methyl-1H-indole-7-carboxamide], the half-maximal inhibitory concentration (IC50) is no less than 100 nM in experiment [1] (Homo sapiens, Ramos) and no less than 100 nM in experiment [2].

Regarding `C=CC(=O)N1CCC[C@@H](c2c(F)cc(C(N)=O)c3[nH]c(C)c(C(F)F)c23)C1` [Compound 12, (S)-4-(1-acryloylpiperidin-3-yl)-3-(difluoromethyl)-5-fluoro-2-methyl-1H-indole-7-carboxamide], the IC50 in experiment [1] (Homo sapiens, Ramos) was no less than 100 nM; in experiment [2] it was no less than 100 nM.

In the case of `C=CC(=O)N1CCCC(c2c(F)c(F)c(C(N)=O)c3[nH]c(C)c(F)c23)C1` (stereo not drawn) [Compound 13, 4-(1-acryloylpiperidin-3-yl)-3,5,6-trifluoro-2-methyl-1H-indole-7-carboxamide], the IC50 in experiment [1] (Homo sapiens, Ramos) was less than 10 nM; in experiment [2], less than 10 nM.

Consider `C=CC(=O)N1CCCC(c2c(F)cc(C(N)=O)c3[nH]c(C)c(C(F)F)c23)C1` (stereo not drawn) [Compound 14, 4-(1-acryloylpiperidin-3-yl)-3-(difluoromethyl)-5-fluoro-2-methyl-1H-indole-7-carboxamide], for which the IC50 in experiment [1] (Homo sapiens, Ramos) is no less than 100 nM; in experiment [2], no less than 100 nM.

Take `CC#CC(=O)N1CCC[C@H](c2c(F)cc(C(N)=O)c3[nH]c(C)c(Cl)c23)C1` [Compound 17, (R)-4-(1-(but-2-ynoyl)piperidin-3-yl)-3-chloro-5-fluoro-2-methyl-1H-indole-7-carboxamide]: the IC50 in experiment [1] (Homo sapiens, Ramos) is no less than 100 nM; in experiment [2] it was no less than 100 nM.

Consider `CC#CC(=O)N1CCC[C@@H](c2c(F)cc(C(N)=O)c3[nH]c(C)c(Cl)c23)C1` [Compound 18, (S)-4-(1-(but-2-ynoyl)piperidin-3-yl)-3-chloro-5-fluoro-2-methyl-1H-indole-7-carboxamide], for which the IC50 in experiment [1] (Homo sapiens, Ramos) was no less than 100 nM; in experiment [2] it was no less than 100 nM.

On to `CC#CC(=O)N1CCC=C(c2c(F)cc(C(N)=O)c3[nH]c(C)c(Cl)c23)C1` [Compound 19, 4-(1-(but-2-ynoyl)-1,2,5,6-tetrahydropyridin-3-yl)-3-chloro-5-fluoro-2-methyl-1H-indole-7-carboxamide], for which the IC50 is no less than 100 nM in experiment [1] (Homo sapiens, Ramos) and no less than 100 nM in experiment [2].

In the case of `C=CC(=O)N1CCc2c(cccc2-c2c(F)cc(C(N)=O)c3[nH]c(C)c(C#N)c23)C1` [Compound 20g, 4-(2-acryloyl-1,2,3,4-tetrahydroisoquinolin-5-yl)-3-cyano-5-fluoro-2-methyl-1H-indole-7-carboxamide], the IC50 is 10 to 100 nM in experiment [1] and less than 10 nM in experiment [2].

On to `C#CC(=O)N1CCc2c(cccc2-c2c(F)cc(C(N)=O)c3[nH]c(C)c(C)c23)C1` [Compound 20j, 5-fluoro-2,3-dimethyl-4-(2-propioloyl-1,2,3,4-tetrahydroisoquinolin-5-yl)-1H-indole-7-carboxamide], for which the IC50 is 10 to 100 nM in experiment [1] (Homo sapiens, Ramos) and less than 10 nM in experiment [2].

Regarding `C=CC(=O)N1CCc2c(cccc2-c2c(F)c(F)c(C(N)=O)c3[nH]c(C)c(Cl)c23)C1` [Compound 21a, 4-(2-acryloyl-1,2,3,4-tetrahydroisoquinolin-5-yl)-3-chloro-5,6-difluoro-2-methyl-1H-indole-7-carboxamide], the figures for the IC50 in experiment [1] and in experiment [2] were 10 to 100 nM and less than 10 nM, respectively.

Turning to `C=CC(=O)N1CCc2c(cccc2-c2c(F)c(F)c(C(N)=O)c3[nH]c(C)c(F)c23)C1` [Compound 21d, 4-(2-acryloyl-1,2,3,4-tetrahydroisoquinolin-5-yl)-3,5,6-trifluoro-2-methyl-1H-indole-7-carboxamide], the IC50 was in the range of 10 to 100 nM in experiment [1] (Homo sapiens, Ramos) and 10 to 100 nM in experiment [2].

In the case of `C=CC(=O)N1CCc2c(cccc2-c2c(F)c(F)c(C(N)=O)c3[nH]c(C)c(C#N)c23)C1` [Compound 21e, 4-(2-acryloyl-1,2,3,4-tetrahydroisoquinolin-5-yl)-3-cyano-5,6-difluoro-2-methyl-1H-indole-7-carboxamide], the half-inhibitory concentration (IC50) fell in the range of 10 to 100 nM in experiment [1] (Homo sapiens, Ramos) and 10 to 100 nM in experiment [2].

The values are drawn from patent publication US12448363B2, “Kinase inhibitors” (Vidya Therapeutics, Inc., priority 2020, dated 2025).
